One molecule from US8952024B2, “Herbicidal pyrimidone derivatives” (E I du Pont de Nemours and Company, priority 2009, dated 2015) can be followed below.

The first experiment has as its system woolly cupgrass (Eriochloa villosa). As to the kind of experiment: Test B pre-/postemergence plant response. The experiment is classed as in vivo. Conditions: 31 g ai/ha, postemergence; scale 0 to 100, 0 is no effect, 100 is complete control. The method, boiled down:
(§1)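 Compound in solvent + surfactant applied pre-em (loam/sand) or post-em (plants 2–18 cm, peat medium); greenhouse hold 13–15 days; visual 0–100 control score.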
On to `O=C1CCCC(OC(=O)C2CC2)=C1C(=O)c1cnc(-c2ccccc2)n(-c2ccccc2)c1=O` [Compound 88], for which the “Plant response rating, Cupgrass, Woolly” value came to 75.

Still in this experiment, the particulars now being: 62 g ai/ha, postemergence; 0 is no effect, 100 is complete control; 13 to 15 days.
With `O=C1CCCC(OC(=O)C2CC2)=C1C(=O)c1cnc(-c2ccccc2)n(-c2ccccc2)c1=O` [Compound 88], the “Cupgrass, Woolly plant response rating (0 to 100 scale)” value came out at 80.

Staying with this experiment, now noted: Postemergence, 125 g ai/ha; visual rating after 13 to 15 days, scale 0 (no effect) to 100 (complete control).
Take `O=C1CCCC(OC(=O)C2CC2)=C1C(=O)c1cnc(-c2ccccc2)n(-c2ccccc2)c1=O` [Compound 88]: the “Plant response rating, Cupgrass, Woolly” value was determined as 90.

The same experiment, now with this note: Postemergence, 250 g ai/ha; scale 0 to 100 (0 no effect, 100 complete control).
For `O=C1CCCC(OC(=O)C2CC2)=C1C(=O)c1cnc(-c2ccccc2)n(-c2ccccc2)c1=O` [Compound 88], the “Plant response rating, Cupgrass, Woolly” value is 95.

In the next experiment the test system is bermudagrass (Cynodon dactylon). The experiment is described as follows: Test B pre-/postemergence plant response. The experiment is classed as in vivo. Conditions: 31 g ai/ha, postemergence; scale 0 to 100, 0 is no effect, 100 is complete control. In outline: as §1
Regarding `O=C1CCCC(OC(=O)C2CC2)=C1C(=O)c1cnc(-c2ccccc2)n(-c2ccccc2)c1=O` [Compound 88], the “Plant response rating, Bermudagrass” value was 80.

Still in this experiment, the particulars now being: 62 g ai/ha, postemergence; 0 is no effect, 100 is complete control; 13 to 15 days.
As for `O=C1CCCC(OC(=O)C2CC2)=C1C(=O)c1cnc(-c2ccccc2)n(-c2ccccc2)c1=O` [Compound 88], the “Bermudagrass plant response rating (0 to 100 scale)” value is given as 80.

Still in this experiment, the particulars now being: Postemergence, 125 g ai/ha; visual rating after 13 to 15 days, scale 0 (no effect) to 100 (complete control).
With `O=C1CCCC(OC(=O)C2CC2)=C1C(=O)c1cnc(-c2ccccc2)n(-c2ccccc2)c1=O` [Compound 88], the “Plant response rating, Bermudagrass” value is given as 80.

Staying with this experiment, now noted: Postemergence, 250 g ai/ha; scale 0 to 100 (0 no effect, 100 complete control).
As to `O=C1CCCC(OC(=O)C2CC2)=C1C(=O)c1cnc(-c2ccccc2)n(-c2ccccc2)c1=O` [Compound 88], the “Plant response rating, Bermudagrass” value was 85.

The subject of a further experiment is lambsquarters (Chenopodium album). As to the kind of experiment: Test B pre-/postemergence plant response. The experiment is classed as in vivo. Conditions: 31 g ai/ha, postemergence; scale 0 to 100, 0 is no effect, 100 is complete control. In outline:
as §1
As for `O=C1CCCC(OC(=O)C2CC2)=C1C(=O)c1cnc(-c2ccccc2)n(-c2ccccc2)c1=O` [Compound 88], the “Plant response rating, Lambsquarters” value is reported as 95.

Staying with this experiment, now noted: 62 g ai/ha, postemergence; 0 is no effect, 100 is complete control; 13 to 15 days.
As to `O=C1CCCC(OC(=O)C2CC2)=C1C(=O)c1cnc(-c2ccccc2)n(-c2ccccc2)c1=O` [Compound 88], the “Lambsquarters plant response rating (0 to 100 scale)” value is given as 98.

Still in this experiment, the particulars now being: Postemergence, 250 g ai/ha; scale 0 to 100 (0 no effect, 100 complete control).
In the case of `O=C1CCCC(OC(=O)C2CC2)=C1C(=O)c1cnc(-c2ccccc2)n(-c2ccccc2)c1=O` [Compound 88], the “Plant response rating, Lambsquarters” value is 100.

A further experiment deals with morningglory (Ipomoea coccinea). The experiment is described as follows: Test B pre-/postemergence plant response. The experiment is classed as in vivo. As to conditions: 31 g ai/ha, postemergence; scale 0 to 100, 0 is no effect, 100 is complete control. In outline: as §1
Regarding `O=C1CCCC(OC(=O)C2CC2)=C1C(=O)c1cnc(-c2ccccc2)n(-c2ccccc2)c1=O` [Compound 88], the “Plant response rating, Morningglory” value is given as 90.

Staying with this experiment, now noted: 62 g ai/ha, postemergence; 0 is no effect, 100 is complete control; 13 to 15 days.
For the molecule `O=C1CCCC(OC(=O)C2CC2)=C1C(=O)c1cnc(-c2ccccc2)n(-c2ccccc2)c1=O` [Compound 88], the “Morningglory plant response rating (0 to 100 scale)” value came to 90.

The experiment is the same for the next values; noted with them: Postemergence, 250 g ai/ha; scale 0 to 100 (0 no effect, 100 complete control).
With `O=C1CCCC(OC(=O)C2CC2)=C1C(=O)c1cnc(-c2ccccc2)n(-c2ccccc2)c1=O` [Compound 88], the “Plant response rating, Morningglory” value is 95.

The subject of the next experiment is giant foxtail (Setaria faberii). The experiment is described as follows: Test B pre-/postemergence plant response. The experiment is classed as in vivo. Conditions: 31 g ai/ha, postemergence; scale 0 to 100, 0 is no effect, 100 is complete control. In outline: as §1
Turning to `O=C1CCCC(OC(=O)C2CC2)=C1C(=O)c1cnc(-c2ccccc2)n(-c2ccccc2)c1=O` [Compound 88], the “Plant response rating, Foxtail, Giant” value was determined as 95.

The experiment is the same for the next values; noted with them: 62 g ai/ha, postemergence; 0 is no effect, 100 is complete control; 13 to 15 days.
`O=C1CCCC(OC(=O)C2CC2)=C1C(=O)c1cnc(-c2ccccc2)n(-c2ccccc2)c1=O` [Compound 88]: the “Foxtail, Giant plant response rating (0 to 100 scale)” value is 95.

The same experiment, now with this note: Postemergence, 250 g ai/ha; scale 0 to 100 (0 no effect, 100 complete control).
Turning to `O=C1CCCC(OC(=O)C2CC2)=C1C(=O)c1cnc(-c2ccccc2)n(-c2ccccc2)c1=O` [Compound 88], the “Plant response rating, Foxtail, Giant” value was found to be 95.

Another experiment concerns Italian ryegrass (Lolium multiflorum). As to the kind of experiment: Test B pre-/postemergence plant response. The experiment is classed as in vivo. Conditions: 31 g ai/ha, postemergence; scale 0 to 100, 0 is no effect, 100 is complete control. The method, boiled down: as §1
As to `O=C1CCCC(OC(=O)C2CC2)=C1C(=O)c1cnc(-c2ccccc2)n(-c2ccccc2)c1=O` [Compound 88], the “Plant response rating, Ryegrass, Italian” value came out at 5.

Staying with this experiment, now noted: 62 g ai/ha, postemergence; 0 is no effect, 100 is complete control; 13 to 15 days.
As to `O=C1CCCC(OC(=O)C2CC2)=C1C(=O)c1cnc(-c2ccccc2)n(-c2ccccc2)c1=O` [Compound 88], the “Ryegrass, Italian plant response rating (0 to 100 scale)” value was determined as 5.

The experiment is the same for the next values; noted with them: Postemergence, 250 g ai/ha; scale 0 to 100 (0 no effect, 100 complete control).
For `O=C1CCCC(OC(=O)C2CC2)=C1C(=O)c1cnc(-c2ccccc2)n(-c2ccccc2)c1=O` [Compound 88], the “Plant response rating, Ryegrass, Italian” value came to 80.

The test system of the next experiment is green foxtail (Setaria viridis). The experiment is described as follows: Test B pre-/postemergence plant response. It is filed as in vivo. As to conditions: 31 g ai/ha, postemergence; scale 0 to 100, 0 is no effect, 100 is complete control. The method, boiled down:
as §1
Turning to `O=C1CCCC(OC(=O)C2CC2)=C1C(=O)c1cnc(-c2ccccc2)n(-c2ccccc2)c1=O` [Compound 88], the “Plant response rating, Foxtail, Green” value worked out at 95.

The same experiment, now with this note: 62 g ai/ha, postemergence; 0 is no effect, 100 is complete control; 13 to 15 days.
With `O=C1CCCC(OC(=O)C2CC2)=C1C(=O)c1cnc(-c2ccccc2)n(-c2ccccc2)c1=O` [Compound 88], the “Foxtail, Green plant response rating (0 to 100 scale)” value is on record as 98.

Staying with this experiment, now noted: Postemergence, 250 g ai/ha; scale 0 to 100 (0 no effect, 100 complete control).
Consider `O=C1CCCC(OC(=O)C2CC2)=C1C(=O)c1cnc(-c2ccccc2)n(-c2ccccc2)c1=O` [Compound 88], for which the “Plant response rating, Foxtail, Green” value is given as 100.
